Measured values as given in patent publication US7977327B2, “Substituted pyrrolidine derivative” (Daiichi Sankyo Company, Limited, priority 2004, dated 2011).
Counter-ions that a name gives are not always drawn. Marks after values point to notes of the source that are not given here.

How the values were obtained:
[1] = tested on: Chinese hamster lung (CHL/IU) cells; test: Effect of inducing chromosomal aberration; type: cell-based; conditions: for Percentile induction of structural aberration (TA %): 24 hours
Experimental: From each sample solution, samples to be tested having a concentration of 1, 3, 10, 30, 50, and 100 μg/mL (as reduced to free form) were prepared. As a negative control, 0.1 mol/L NaOH was employed.
Chinese hamster lung (CHL/IU) cells in logarithmic growth phase were employed. The cells were treated in a culture solution containing each sample to be tested for 24 hours. Subsequently, a chromosome specimen was prepared from the thus-treated cells. The culture solution employed was an Eagle's MEM (product of NISSUI PHARMACEUTICAL CO., LTD.) medium containing 15% fetal bovine serum (15% FBS-MEM).
In each sample concentration, 100 cells during metaphase were observed, to thereby record types and numbers of the chromosomal aberration.

Structure (SMILES): CCC[C@H]1CN(c2c(F)cc3c(=O)c(C(=O)O)cn4c3c2OC[C@@H]4C)C[C@H]1N (as salt: hydrochloride)
- melting point: 225 to 231 °C

Structure (SMILES): CCC[C@H]1CN(c2c(F)cc3c(=O)c(C(=O)O)cn([C@@H]4C[C@@H]4F)c3c2C)C[C@H]1N (as salt: hydrochloride) [Compound No. 5, 7-[(3S,4S)-3-Amino-4-propylpyrrolidin-1-yl]-6-fluoro-1-[(1R,2S)-2-fluorocyclopropyl]-8-methyl-1,4-dihydro-4-oxoquinoline-3-carboxylic acid-hydrochloride]
- melting point: 197 to 207 °C

Structure (SMILES): CC[C@H]1CN(c2c(F)cc3c(=O)c(C(=O)O)cn(C4CC4)c3c2C)C[C@H]1N [Comparative Compound D, 7-[(3S,4S)-3-Amino-4-ethylpyrrolidine-1-yl]-1-cyclopropyl-6-fluoro-8-methyl-1,4-dihydro-4-oxoquinoline-3-carboxylic acid, reference compound]
- Percentile induction of structural aberration (TA %) ([1]; 1 μg/mL, CHL/IU cells): 4%
- Percentile induction of structural aberration (TA %) ([1]; 3 μg/mL, CHL/IU cells): 0%
- Percentile induction of structural aberration (TA %) ([1]; 10 μg/mL, CHL/IU cells): 3%
- Percentile induction of structural aberration (TA %) ([1]; 30 μg/mL, CHL/IU cells): 63* %
- Percentile induction of structural aberration (TA %) ([1]; 50 μg/mL, CHL/IU cells): 98* %
- Percentile induction of structural aberration (TA %) ([1]; 100 μg/mL, CHL/IU cells): 100* %

Structure (SMILES): CC[C@H]1CN(c2c(F)c(N)c3c(=O)c(C(=O)O)cn(C4CC4)c3c2C)C[C@H]1N [Comparative Compound E, 5-amino-7-[(3S,4S)-3-amino-4-ethyl-1-pyrrolidinyl]-1-cyclopropyl-6-fluoro-1,4-dihydro-8-methyl-4-oxoquinoline-3-carboxylic acid, reference compound]
- Percentile induction of structural aberration (TA %) ([1]; 1 μg/mL, CHL/IU cells): 0%
- Percentile induction of structural aberration (TA %) ([1]; 3 μg/mL, CHL/IU cells): 3%
- Percentile induction of structural aberration (TA %) ([1]; 10 μg/mL, CHL/IU cells): 1%
- Percentile induction of structural aberration (TA %) ([1]; 30 μg/mL, CHL/IU cells): 6%
- Percentile induction of structural aberration (TA %) ([1]; 50 μg/mL, CHL/IU cells): TOX*^1
- Percentile induction of structural aberration (TA %) ([1]; 100 μg/mL, CHL/IU cells): TOX*^1
- Concentration at which C-mitosis and ski-pair-like chromosomes are observed considerably ([1]; CHL/IU cells): ≥ 50 µg/mL
- Significant increase in number of the cells exhibiting chromosomal aberration ([1]; at a concentration of up to 30 μg/mL): not observed

Structure (SMILES): CCC[C@H]1CN(c2c(F)cc3c(=O)c(C(=O)O)cn([C@@H]4C[C@@H]4F)c3c2OC)C[C@H]1N [Compound No. 4, 7-[(3S,4S)-3-Amino-4-propylpyrrolidin-1-yl]-6-fluoro-1-[(1R,2S)-2-fluorocyclopropyl]-8-methoxy-1,4-dihydro-4-oxoquinoline-3-carboxylic acid]
- melting point: 79 to 83 °C

Structure (SMILES): C=C[C@H]1CN(c2c(F)cc3c(=O)c(C(=O)O)cn4c3c2OC[C@@H]4C)C[C@H]1N [Compound No. 7, (3S)-10-[(3S,4S)-3-Amino-4-vinyl-1-pyrrolidinyl]-9-fluoro-2,3-dihydro-3-methyl-7-oxo-7H-pyrido[1,2,3-de][1,4]benzoxazine-6-carboxylic acid]
- melting point: 238 to 240 °C

Structure (SMILES): C[C@H]1COc2c(N3C[C@@H](N)[C@@H](C4CC4)C3)c(F)cc3c(=O)c(C(=O)O)cn1c23 [Compound No. 9, (3S)-10-[(3S,4S)-3-Amino-4-cyclopropylpyrrolidin-1-yl]-9-fluoro-2,3-dihydro-3-methyl-7-oxo-7H-pyrido[1,2,3-de][1,4]benzoxazine-6-carboxylic acid]
- melting point: 218 to 220 °C

Structure (SMILES): CC[C@H]1CN(c2c(F)cc3c(=O)c(C(=O)O)cn([C@@H]4C[C@@H]4F)c3c2OC)C[C@H]1NC [Compound No. 12, 7-[(3S,4S)-3-Ethyl-4-methylaminopyrrolidin-1-yl]-6-fluoro-1-[(1R,2S)-2-fluorocyclopropyl]-8-methoxy-1,4-dihydro-4-oxoquinoline-3-carboxylic acid]
- melting point: 143 to 145 °C

Structure (SMILES): CC[C@H]1CN(c2c(F)cc3c(=O)c(C(=O)O)cn4c3c2OC[C@@H]4C)C[C@H]1NC [Compound No. 13, (3S)-10-[(3S,4S)-3-Ethyl-4-methylaminopyrrolidin-1-yl]-9-fluoro-2,3-dihydro-3-methyl-7-oxo-7H-pyrido[1,2,3-de][1,4]benzoxazine-6-carboxylic acid]
- melting point: 211 to 213 °C
